“Also recorded” adds a separate entry of the source.
Assays:
GHSR1a [1] = target: T1, GHSR1a (Homo sapiens, UniProt Q92847); assay: Calcium FLIPR assay, GHSR-1a antagonism (reduction of ghrelin response); type: cell-based; details: HEK293/GHSR1a cells, ghrelin 10 nM
T1 construct: expressed in transfected cells; host or cells: HEK293
Procedure, shortened: (§1)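 HEK293/GHSR1a; dye load 30-60 min, RT or 37° C; agonist: cpd at t=20 sec, Ca2+ read 2 min; antagonist: cpd + ghrelin 10 nM at t=20 sec, 2 min read; EC50/IC50 from dose-response fits.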

GHSR1a [2] = target: T1, GHSR1a; assay: Calcium FLIPR assay, GHSR-1a agonism; type: cell-based; parameters: Emax: unit not given here; details: HEK293/GHSR1a cells
Procedure, shortened: as §1

C57BL/6J mice = assay: Food intake test in mouse (GHSR1a antagonists); type: in vivo; details: for inhibition in vivo at 10 mg/kg: Mus musculus, ip, 1 h, i.p. 10 mg/kg
Procedure, shortened: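 Male C57BL/6J mice (18-22 g) were fasted overnight (16 h before dosing), then randomized by body weight to vehicle or test agent (n=6 each). Cumulative food intake was measured at 1, 2, 4, 8 and 24 hrs post-dose as premeasured food minus uneaten food.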

[3] = Metabolic Stability (H = Human); type: in vitro ADME
[4] = Metabolic Stability (M = Mouse); type: in vitro ADME
Metabolic Stability (R) = type: in vitro ADME; details: R (not defined)
Metabolic Stability (D) = type: in vitro ADME; details: D (not defined)
rat = assay: Food intake in rat (PO, with or without ANA); type: in vivo
[5] = tested on: female Sprague-Dawley rats; assay: Binge eating model in non-estrous female rats (food restriction + stress, HPF intake); type: in vivo, rat; details: for HPF intake (binge eating) in R+S rats: 60 mg/kg by gavage 1 h before access to HPF
Experimental: In this Example, the therapeutic potential of compounds were tested for their ability to inhibit binge eating. The animal model used was developed to explore the combination of food restriction and stress. […] Considering the reliability and the robustness of this model, it was adopted to test the inventive compounds.
A total of N=117, 52-day-old female Sprague-Dawley rats (175-200 g) were used. Rats were acclimated in individual cages with metallic walls; the floor and the front wall made of metallic grid. The dimensions of the cage floor being 30 cm×30 cm; the cage is 30 cm high. A front door (30 cm×20 cm) made of metallic grid was positioned in the anterior wall of the cage to gain access to the inside of the cage; the remaining part of the front wall was equipped with a drinking burette.
Rats were kept in a room at constant temperature (20-22° C.) and humidity (45-55%) under a 12-h light/dark cycle (lights on at 08:00 am) with ad lib chow and water. All procedures were conducted in adherence to the European Community Directive for Care and Use of Laboratory Animals.
Rats were offered food pellets, 4RF18, Mucedola, Settimo Milanese, Italy (2.6 kcal/g). The Highly Palatable Food (HPF) was prepared by mixing:
Rats were exposed to 3 consecutive 8-day cycles followed by the final test on day 25:
a) the control group (NR+NS) had chow ad libitum for 4 days, on days 5-6 it received chow+HPF for 2 h; on days 7-8 it had chow ad libitum; on day 25 it was not exposed to stress;
b) the second group (R+S) had chow restricted to 66% of the normal intake for 4 days, was offered chow and HPF (2 h) on days 5-6 and only chow on days 7-8; on day 25 it […].
Body weights and food intake were recorded daily. Food intake is expressed as mean kilocalories per kilogram ingested±SEM.
Therefore, immediately after the test on day 25, vaginal smears were collected and analyzed under microscope to assess the ovarian phase, and data from rats in the estrous phase were not included in the statistical analysis. Vaginal smears were analyzed by an experienced experimenter blind to treatment conditions.
For 15 min, the container (China coffee cup) containing HPF is placed outside the cage; the container handle is hooked to the top wire wall of the cage in the hollow part where food pellets are usually offered. In these conditions, the animal is able to see the cup in which it received HPF on days 5, 6, 13, and 14 of the first two cycles, is able to see in part the HPF itself, and is able to smell its odour. In this 15-min period, the rat engages in repeated movements of the forepaws, head, and trunk aimed at obtaining the HPF, but it is not able to reach it. Rats undergo the stressful procedure between 10.00 and 12.00 am. After 15 min, the cup is placed inside the cage of the rats in the stress group (R+S), so that the HPF became accessible to the rat.
100 mg of each compound (H0816, H0860, H0847 and H0900) was accurately weighed and suspended in 13.33 ml of 0.5% carboxymethyl cellulose sodium salt (CMC, Sigma-Aldrich Cat. C4888, lot 120M0216V) solution. The lower dose solution was prepared by dilution of 30 mg/ml suspension with 0.5% CMC solution. Suspensions were prepared freshly on test day. Vehicle was composed by a solution of 0.5% carboxymethyl cellulose sodium salt and was prepared by dissolving 1 g of CMC in 200 ml of distilled water. 180 mg of Topiramate was accurately weighed and suspended in 12 ml of 0.5% CMC solution. Compounds (vehicle and active principles) were administered by gavage in a volume of 4 ml/kg of body weight one hour before access to HPF.
All data are expressed as the mean±s.e.m. and each value reflects the mean number of animals per group as described in the legends. For data evaluation, the analysis of variance (ANOVA) was used followed by post-hoc (Bonferroni's) test when appropriate. Statistical significance was set at P<0.05. The Software used for the Graphs was Origin 7.0. […]

[6] = first test, acute administration (compounds 3 and 30 mg/kg, Topiramate 60 mg/kg)
[7] = second test, H0816 3, 10 and 30 mg/kg, Topiramate 60 mg/kg

T1 sequence (Q92847 whole entry): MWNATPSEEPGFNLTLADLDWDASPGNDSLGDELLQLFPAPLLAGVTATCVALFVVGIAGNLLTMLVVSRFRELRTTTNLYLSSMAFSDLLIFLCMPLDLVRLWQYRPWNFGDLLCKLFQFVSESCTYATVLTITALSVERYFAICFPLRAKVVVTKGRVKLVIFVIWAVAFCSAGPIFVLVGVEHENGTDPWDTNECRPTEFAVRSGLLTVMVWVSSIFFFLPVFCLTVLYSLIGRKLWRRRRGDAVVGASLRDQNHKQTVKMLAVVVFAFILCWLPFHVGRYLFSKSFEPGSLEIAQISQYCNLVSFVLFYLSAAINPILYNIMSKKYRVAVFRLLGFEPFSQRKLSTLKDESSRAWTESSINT

IC50 (GHSR1a [1]) [nM]	EC50 (GHSR1a [2]) [nM]	Metabolic Stability H [3]	Metabolic Stability M [4]	Metabolic Stability R (Metabolic Stability (R))	Metabolic Stability D (Metabolic Stability (D))	SMILES	Mouse Food Intake, result in words (C57BL/6J mice; PO, dose not given)	further results
2	> 30000	High H High M High R High D	High H High M High R High D	High H High M High R High D	High H High M High R High D	C[C@H](NC(=O)N(C)C1CCN(C)C1)c1ccc(-c2cnccn2)c(Cl)c1Cl (mixture of isomers) [Compound H0837, 3-((S)-1-(2,3-dichloro-4-(pyrazin-2-yl)phenyl)ethyl)-1-methyl-1-(1-methylpyrrolidin-3-yl)urea]		Mouse Food Intake % increase (C57BL/6J mice; 2 h, 30 mg/kg PO mice): 180%; Mouse Food Intake, result in words (C57BL/6J mice; PO 10 mg/kg + ANA (ANAM) 30 mg/kg mice): NSE
6	62	High H High M	High H High M			CC(NC(=O)N(C)C1CCN(C)CC1)c1ccc(C#Cc2cscn2)c(Cl)c1Cl (stereo not shown) [Compound H0751, 3-(1-(2,3-dichloro-4-(thiazol-4-ylethynyl)phenyl)ethyl)-1-methyl-1-(1-methylpiperidin-4-yl)urea]	no effect	Emax (GHSR1a [2]): 1267; inhibition in vivo at 10 mg/kg (C57BL/6J mice): 91%; Food intake in rat, result in words (rat; PO + ANA): no effect
5	> 30000	High H High M	High H High M			CC(NC(=O)N(C)C1CCN(C)CC1)c1ccc(C#Cc2ccco2)c(Cl)c1Cl (stereo not shown) [Compound H0762, 3-(1-(2,3-dichloro-4-(furan-2-ylethynyl)phenyl)ethyl)-1-methyl-1-(1-methylpiperidin-4-yl)urea]	NSEt	inhibition in vivo at 10 mg/kg (C57BL/6J mice): 93%; Food intake in rat, result in words (rat; PO): NSEt
4	> 30000	High H High M	High H High M			CC(NC(=O)N(C)C1CCN(C)CC1)c1ccc(-c2cncc(F)n2)c(Cl)c1Cl (stereo not shown) [Compound H0795, 3-(1-(2,3-dichloro-4-(6-fluoropyrazin-2-yl)phenyl)ethyl)-1-methyl-1-(1-methylpiperidin-4-yl)urea]	NSE	Mouse Food Intake, result in words (C57BL/6J mice; PO + ANA (ANAM), mice, dose not given): inhib; Food intake in rat, result in words (rat; PO + ANA): no activity
10	> 30000	Medium H Medium M Medium R	Medium H Medium M Medium R	Medium H Medium M Medium R		CC(NC(=O)N(Cc1ccccc1)C1CCN(C)CC1)c1ccc(-c2cnccn2)c(Cl)c1Cl (stereo not shown) [Compound H0825, 1-benzyl-3-(1-(2,3-dichloro-4-(pyrazin-2-yl)phenyl)ethyl)-1-(1-methylpiperidin-4-yl)urea]		
5	> 30000	High	High	High	Medium	CCN(C(=O)NC(C)c1ccc(-c2cnccn2)c(Cl)c1Cl)C1CCN(C)CC1 (stereo not shown) [Compound H0826, 3-(1-(2,3-dichloro-4-(pyrazin-2-yl)phenyl)ethyl)-1-ethyl-1-(1-methylpiperidin-4-yl)urea]		
3	> 30000	High	High	High	Medium	CN1CCC(N(C)C(=O)NC(c2ccc(-c3cnccn3)c(Cl)c2Cl)C(F)(F)F)CC1 (stereo not shown) [Compound H0830, 3-(1-(2,3-dichloro-4-(pyrazin-2-yl)phenyl)-2,2,2-trifluoroethyl)-1-methyl-1-(1-methylpiperidin-4-yl)urea]		
6	> 30000	Medium	Low	Medium		CN1CC[C@@H](N(C)C(=O)NC(c2ccc(-c3cnccn3)c(Cl)c2Cl)C(F)(F)F)C(C)(C)C1 (stereo partly drawn) [Compound H0865, 3-(1-(2,3-dichloro-4-(pyrazin-2-yl)phenyl)-2,2,2-trifluoroethyl)-1-methyl-1-((R)-1,3,3-trimethylpiperidin-4-yl)urea]		
						CC1(C)O[C@@H]2[C@@H](CO[C@@]3(COS(N)(=O)=O)OC(C)(C)O[C@@H]23)O1 [Topiramate, reference compound]		HPF intake (binge eating) in R+S rats ([5]; first test, vs R+S vehicle, 60 mg/kg): confirmed its inhibitory effect; also recorded: statistically significant at all time points; also recorded: completely abolished BE episode; 2-h chow food intake during binge eating test [5, 6]: did not modify 2-h chow intake; 24-h chow food intake after binge eating test [5, 6]: did not modify 24-h chow intake; HPF intake (binge eating) in R+S rats ([5]; second test): statistically significant at all time points; 2-h chow intake [5, 7]: did not modify; 24-h chow intake [5, 7]: did not modify

— patent publication US9546157B2, “Asymmetric piperidinyl-substituted ureas as medicines” (Helsinn Healthcare SA, priority 2014, dated 2017)
